According to US10231954B2, “Neurodegenerative therapies” (LYTIX BIOPHARMA AS, priority 2014, dated 2019):

Columns and labels:
Assay type in all cases: biochemical
Details in all cases: 100 micromolar inhibitor concentration, 100 is no change
[1] = molecular target: MNK1 (Homo sapiens, UniProt Q9BUB5); assay: Kinase profiling MNK1
From the text: (§1) Any value less that 25 is considered to be highly significant inhibition.

[2] = molecular target: MNK2 (Homo sapiens, UniProt Q9HBH9); assay: Kinase profiling MNK2
From the text: as §1

[3] = molecular target: MAPKAP-K2 (Homo sapiens, UniProt P49137); assay: Kinase profiling MAPKAP-K2
Sequence of MAPKAP-K2 (P49137 whole entry, species assumed): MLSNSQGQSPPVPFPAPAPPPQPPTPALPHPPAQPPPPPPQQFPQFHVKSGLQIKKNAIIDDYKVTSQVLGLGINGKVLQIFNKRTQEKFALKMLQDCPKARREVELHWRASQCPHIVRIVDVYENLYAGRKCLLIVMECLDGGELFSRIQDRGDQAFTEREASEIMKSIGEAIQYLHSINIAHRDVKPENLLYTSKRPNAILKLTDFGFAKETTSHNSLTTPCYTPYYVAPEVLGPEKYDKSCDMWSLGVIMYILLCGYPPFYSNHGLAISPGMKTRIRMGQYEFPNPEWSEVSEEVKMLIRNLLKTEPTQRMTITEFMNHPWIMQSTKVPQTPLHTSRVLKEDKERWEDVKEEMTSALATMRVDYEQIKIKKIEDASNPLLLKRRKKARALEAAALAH
From the text: as §1

[4] = molecular target: MARK2 (Homo sapiens, UniProt Q7KZI7); assay: Kinase profiling MARK2
Sequence of MARK2 (Q7KZI7 whole entry, species assumed): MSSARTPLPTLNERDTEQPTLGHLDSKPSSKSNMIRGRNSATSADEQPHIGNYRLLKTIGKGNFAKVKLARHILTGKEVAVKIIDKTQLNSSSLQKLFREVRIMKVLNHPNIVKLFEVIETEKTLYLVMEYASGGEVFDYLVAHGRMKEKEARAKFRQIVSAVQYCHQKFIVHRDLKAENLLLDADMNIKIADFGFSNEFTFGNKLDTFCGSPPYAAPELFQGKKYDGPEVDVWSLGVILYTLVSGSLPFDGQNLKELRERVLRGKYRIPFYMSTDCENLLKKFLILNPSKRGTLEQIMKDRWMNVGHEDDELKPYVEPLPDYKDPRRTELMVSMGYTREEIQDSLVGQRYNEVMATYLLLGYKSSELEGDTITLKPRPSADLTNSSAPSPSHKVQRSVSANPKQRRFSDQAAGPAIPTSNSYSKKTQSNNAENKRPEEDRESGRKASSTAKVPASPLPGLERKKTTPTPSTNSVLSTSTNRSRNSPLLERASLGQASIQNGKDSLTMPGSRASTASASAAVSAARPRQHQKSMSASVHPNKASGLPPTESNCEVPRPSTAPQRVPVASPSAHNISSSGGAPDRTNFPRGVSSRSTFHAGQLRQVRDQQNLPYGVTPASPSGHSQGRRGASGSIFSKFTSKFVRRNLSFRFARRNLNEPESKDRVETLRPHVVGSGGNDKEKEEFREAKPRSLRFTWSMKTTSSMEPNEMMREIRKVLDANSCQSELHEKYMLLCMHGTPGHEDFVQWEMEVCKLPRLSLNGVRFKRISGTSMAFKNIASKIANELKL
From the text: as §1

[5] = molecular target: T1, BRSK2 (Homo sapiens, UniProt Q8IWQ3); assay: Kinase profiling BRSK2
T1 sequence (Q8IWQ3 1-736): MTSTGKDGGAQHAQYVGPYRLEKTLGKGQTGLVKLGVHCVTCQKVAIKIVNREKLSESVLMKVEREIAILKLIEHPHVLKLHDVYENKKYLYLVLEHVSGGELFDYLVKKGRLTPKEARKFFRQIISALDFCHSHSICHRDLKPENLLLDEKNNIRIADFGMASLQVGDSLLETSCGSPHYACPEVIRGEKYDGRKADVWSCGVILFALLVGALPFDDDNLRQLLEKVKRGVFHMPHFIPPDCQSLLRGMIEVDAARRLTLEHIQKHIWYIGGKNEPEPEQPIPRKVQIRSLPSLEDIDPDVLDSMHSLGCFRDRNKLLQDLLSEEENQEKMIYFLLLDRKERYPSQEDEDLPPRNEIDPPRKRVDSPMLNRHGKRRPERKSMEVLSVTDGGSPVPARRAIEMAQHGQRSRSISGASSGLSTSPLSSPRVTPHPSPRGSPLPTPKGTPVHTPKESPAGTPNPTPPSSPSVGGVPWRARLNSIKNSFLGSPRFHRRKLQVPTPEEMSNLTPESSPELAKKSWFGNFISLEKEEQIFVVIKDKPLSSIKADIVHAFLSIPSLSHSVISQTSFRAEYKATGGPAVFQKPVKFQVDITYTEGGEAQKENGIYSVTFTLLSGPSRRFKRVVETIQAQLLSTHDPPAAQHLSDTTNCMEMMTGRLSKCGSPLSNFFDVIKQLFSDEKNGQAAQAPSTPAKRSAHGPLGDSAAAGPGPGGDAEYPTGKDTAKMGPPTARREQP
From the text: as §1

[6] = molecular target: SIK2 (Homo sapiens, UniProt Q9H0K1); assay: Kinase profiling SIK2
Sequence of SIK2 (Q9H0K1 whole entry, species assumed): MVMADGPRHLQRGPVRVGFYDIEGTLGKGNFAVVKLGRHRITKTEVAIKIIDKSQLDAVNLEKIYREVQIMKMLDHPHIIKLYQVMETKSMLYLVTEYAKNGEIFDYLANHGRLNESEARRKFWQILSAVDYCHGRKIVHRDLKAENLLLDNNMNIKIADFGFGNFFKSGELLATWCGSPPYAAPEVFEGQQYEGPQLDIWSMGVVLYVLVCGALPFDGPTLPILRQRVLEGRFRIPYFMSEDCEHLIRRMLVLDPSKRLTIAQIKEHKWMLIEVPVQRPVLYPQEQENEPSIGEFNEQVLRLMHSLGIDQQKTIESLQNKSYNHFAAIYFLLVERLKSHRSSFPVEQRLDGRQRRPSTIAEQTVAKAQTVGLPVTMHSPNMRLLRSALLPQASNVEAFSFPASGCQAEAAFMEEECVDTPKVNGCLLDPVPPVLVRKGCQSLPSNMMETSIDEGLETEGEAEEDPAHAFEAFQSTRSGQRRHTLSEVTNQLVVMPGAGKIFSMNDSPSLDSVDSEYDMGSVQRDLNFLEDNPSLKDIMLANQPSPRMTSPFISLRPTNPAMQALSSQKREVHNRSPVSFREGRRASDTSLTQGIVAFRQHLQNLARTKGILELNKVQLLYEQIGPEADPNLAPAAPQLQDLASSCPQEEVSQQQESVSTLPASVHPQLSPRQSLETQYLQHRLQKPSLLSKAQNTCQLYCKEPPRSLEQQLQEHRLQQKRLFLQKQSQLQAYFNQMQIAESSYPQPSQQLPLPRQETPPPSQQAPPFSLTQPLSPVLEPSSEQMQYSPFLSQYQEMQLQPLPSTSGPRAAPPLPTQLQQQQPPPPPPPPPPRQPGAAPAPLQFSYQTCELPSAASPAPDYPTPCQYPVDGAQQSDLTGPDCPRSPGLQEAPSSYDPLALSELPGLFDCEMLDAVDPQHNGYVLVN
From the text: as §1

[7] = molecular target: PIM2 (Homo sapiens, UniProt Q9P1W9); assay: Kinase profiling PIM2
From the text: as §1

[8] = molecular target: HIPK3 (Homo sapiens, UniProt Q9H422); assay: Kinase profiling HIPK3
From the text: as §1

[9] = molecular target: PAK2 (Homo sapiens, UniProt Q13177); assay: Kinase profiling PAK2
Sequence of PAK2 (Q13177 whole entry, species assumed): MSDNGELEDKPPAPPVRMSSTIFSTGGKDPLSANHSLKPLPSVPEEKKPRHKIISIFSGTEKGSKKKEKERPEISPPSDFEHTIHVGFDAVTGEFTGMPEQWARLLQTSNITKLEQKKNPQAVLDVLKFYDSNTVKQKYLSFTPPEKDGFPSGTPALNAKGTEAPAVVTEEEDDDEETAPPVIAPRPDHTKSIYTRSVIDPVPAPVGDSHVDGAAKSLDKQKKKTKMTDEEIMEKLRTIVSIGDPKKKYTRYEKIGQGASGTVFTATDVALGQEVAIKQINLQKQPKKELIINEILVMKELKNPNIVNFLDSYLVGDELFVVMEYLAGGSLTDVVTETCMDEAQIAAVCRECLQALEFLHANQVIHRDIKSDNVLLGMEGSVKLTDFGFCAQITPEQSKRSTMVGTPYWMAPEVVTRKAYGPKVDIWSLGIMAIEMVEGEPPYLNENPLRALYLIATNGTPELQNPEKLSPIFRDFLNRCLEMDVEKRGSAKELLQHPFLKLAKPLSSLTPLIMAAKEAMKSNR
From the text: as §1

[10] = molecular target: PAK5 (Homo sapiens, UniProt Q9P286); assay: Kinase profiling PAK5
Sequence of PAK5 (Q9P286 whole entry): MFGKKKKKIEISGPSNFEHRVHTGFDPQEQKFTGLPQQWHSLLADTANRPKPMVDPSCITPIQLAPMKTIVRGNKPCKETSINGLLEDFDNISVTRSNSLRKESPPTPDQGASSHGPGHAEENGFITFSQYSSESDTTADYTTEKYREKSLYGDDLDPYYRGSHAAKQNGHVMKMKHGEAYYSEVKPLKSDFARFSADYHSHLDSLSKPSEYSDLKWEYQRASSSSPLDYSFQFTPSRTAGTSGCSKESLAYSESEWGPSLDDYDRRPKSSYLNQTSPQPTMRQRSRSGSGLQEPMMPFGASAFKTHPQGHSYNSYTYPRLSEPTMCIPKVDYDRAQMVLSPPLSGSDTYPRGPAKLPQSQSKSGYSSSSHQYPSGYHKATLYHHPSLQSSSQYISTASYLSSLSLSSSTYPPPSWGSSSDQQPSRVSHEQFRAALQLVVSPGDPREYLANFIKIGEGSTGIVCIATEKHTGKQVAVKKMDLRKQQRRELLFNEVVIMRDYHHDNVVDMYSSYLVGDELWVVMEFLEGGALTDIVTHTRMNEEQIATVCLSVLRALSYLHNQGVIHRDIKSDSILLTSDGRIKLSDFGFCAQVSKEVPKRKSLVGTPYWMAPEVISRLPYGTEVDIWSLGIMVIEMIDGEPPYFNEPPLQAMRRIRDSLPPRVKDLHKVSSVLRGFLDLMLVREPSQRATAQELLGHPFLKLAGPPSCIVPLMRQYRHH
From the text: as §1

[11] = molecular target: MLK1 (Homo sapiens, UniProt P80192); assay: Kinase profiling MLK1
Sequence of MLK1 (P80192 whole entry, species assumed): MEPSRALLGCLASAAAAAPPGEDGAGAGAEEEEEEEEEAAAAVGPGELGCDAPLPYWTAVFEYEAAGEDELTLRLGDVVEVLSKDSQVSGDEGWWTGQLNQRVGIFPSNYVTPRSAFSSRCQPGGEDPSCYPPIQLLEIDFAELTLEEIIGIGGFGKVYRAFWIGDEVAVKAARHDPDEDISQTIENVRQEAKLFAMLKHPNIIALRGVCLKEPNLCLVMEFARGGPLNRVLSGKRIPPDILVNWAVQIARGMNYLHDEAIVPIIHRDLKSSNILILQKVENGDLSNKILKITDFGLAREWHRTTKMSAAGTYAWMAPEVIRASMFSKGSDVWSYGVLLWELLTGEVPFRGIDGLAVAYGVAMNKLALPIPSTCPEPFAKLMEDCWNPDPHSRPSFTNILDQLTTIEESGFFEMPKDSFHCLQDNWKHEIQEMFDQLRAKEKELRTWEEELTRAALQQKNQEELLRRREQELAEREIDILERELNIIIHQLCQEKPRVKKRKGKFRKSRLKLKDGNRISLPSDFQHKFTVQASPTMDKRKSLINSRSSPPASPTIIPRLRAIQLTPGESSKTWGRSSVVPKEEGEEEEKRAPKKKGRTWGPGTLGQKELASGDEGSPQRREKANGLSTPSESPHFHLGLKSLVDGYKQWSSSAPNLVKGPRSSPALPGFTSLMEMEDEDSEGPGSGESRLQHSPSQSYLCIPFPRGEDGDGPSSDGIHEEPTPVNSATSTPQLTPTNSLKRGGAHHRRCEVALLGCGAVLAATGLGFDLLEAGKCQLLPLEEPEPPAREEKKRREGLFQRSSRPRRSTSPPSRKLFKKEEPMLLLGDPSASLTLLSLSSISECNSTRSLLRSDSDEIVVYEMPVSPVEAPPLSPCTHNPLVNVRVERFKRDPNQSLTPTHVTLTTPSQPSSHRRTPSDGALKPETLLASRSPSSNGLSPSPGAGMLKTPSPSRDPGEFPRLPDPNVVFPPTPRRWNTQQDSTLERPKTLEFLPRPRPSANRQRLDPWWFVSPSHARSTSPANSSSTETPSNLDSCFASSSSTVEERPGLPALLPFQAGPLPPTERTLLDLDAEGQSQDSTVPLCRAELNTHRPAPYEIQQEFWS
From the text: as §1

[12] = molecular target: CSK (Homo sapiens, UniProt P41240); assay: Kinase profiling CSK
Sequence of CSK (P41240 whole entry, species assumed): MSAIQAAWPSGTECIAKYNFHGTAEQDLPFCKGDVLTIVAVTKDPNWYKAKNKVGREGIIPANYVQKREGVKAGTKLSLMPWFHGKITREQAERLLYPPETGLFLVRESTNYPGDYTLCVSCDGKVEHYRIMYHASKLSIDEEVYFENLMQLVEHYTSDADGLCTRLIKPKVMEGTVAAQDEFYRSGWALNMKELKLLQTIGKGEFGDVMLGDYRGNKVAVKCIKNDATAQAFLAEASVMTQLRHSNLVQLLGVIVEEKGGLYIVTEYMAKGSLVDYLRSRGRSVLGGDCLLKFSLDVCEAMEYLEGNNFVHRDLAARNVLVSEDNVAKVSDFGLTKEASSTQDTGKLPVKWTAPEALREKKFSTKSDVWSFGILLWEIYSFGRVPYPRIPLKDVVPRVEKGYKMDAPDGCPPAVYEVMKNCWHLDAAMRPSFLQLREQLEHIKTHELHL
From the text: as §1

[13] = molecular target: BRK (Homo sapiens, UniProt Q13882); assay: Kinase profiling BRK
From the text: as §1

[14] = molecular target: T2, EPH-B3 (Homo sapiens, UniProt P54753); assay: Kinase profiling EPH-B3
T2 sequence (P54753 34-998): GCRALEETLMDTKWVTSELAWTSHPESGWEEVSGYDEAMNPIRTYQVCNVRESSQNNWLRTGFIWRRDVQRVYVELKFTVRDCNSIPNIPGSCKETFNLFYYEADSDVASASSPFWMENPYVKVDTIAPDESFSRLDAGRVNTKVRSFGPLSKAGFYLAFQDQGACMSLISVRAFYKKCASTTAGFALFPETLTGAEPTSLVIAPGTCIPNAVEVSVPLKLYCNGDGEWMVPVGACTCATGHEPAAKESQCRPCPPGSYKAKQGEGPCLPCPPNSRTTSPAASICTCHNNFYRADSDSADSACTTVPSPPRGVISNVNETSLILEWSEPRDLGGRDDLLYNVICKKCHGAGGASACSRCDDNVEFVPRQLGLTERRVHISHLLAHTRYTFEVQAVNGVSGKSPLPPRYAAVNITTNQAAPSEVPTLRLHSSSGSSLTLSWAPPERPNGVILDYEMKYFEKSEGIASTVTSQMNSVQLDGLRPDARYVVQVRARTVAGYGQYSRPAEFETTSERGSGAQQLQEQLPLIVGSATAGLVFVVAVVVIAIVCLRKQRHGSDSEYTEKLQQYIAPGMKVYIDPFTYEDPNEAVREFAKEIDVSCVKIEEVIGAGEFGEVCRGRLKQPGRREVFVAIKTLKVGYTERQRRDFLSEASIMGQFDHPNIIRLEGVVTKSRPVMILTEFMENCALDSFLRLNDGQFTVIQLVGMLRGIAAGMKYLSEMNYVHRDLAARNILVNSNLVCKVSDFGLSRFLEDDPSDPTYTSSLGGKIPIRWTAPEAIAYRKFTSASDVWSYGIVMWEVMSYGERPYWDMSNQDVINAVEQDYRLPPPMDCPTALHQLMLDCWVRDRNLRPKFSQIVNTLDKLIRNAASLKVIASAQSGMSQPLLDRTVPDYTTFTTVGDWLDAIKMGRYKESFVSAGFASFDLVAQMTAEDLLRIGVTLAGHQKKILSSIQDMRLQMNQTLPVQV
From the text: as §1

Compound	residual kinase activity, MNK1 [1]	residual kinase activity, MNK2 [2]	residual kinase activity, MAPKAP-K2 [3]	residual kinase activity, MARK2 [4]	residual kinase activity, BRSK2 [5]	residual kinase activity, SIK2 [6]	residual kinase activity, PIM2 [7]	residual kinase activity, HIPK3 [8]	residual kinase activity, PAK2 [9]	residual kinase activity, PAK5 [10]	residual kinase activity, MLK1 [11]	residual kinase activity, CSK [12]	residual kinase activity, BRK [13]	residual kinase activity, EPH-B3 [14]	further results
CC(=O)Nc1nc2cc(F)ccc2s1 [Compound 03-77]	–	–	–	–	–	–	–	–	–	–	–	–	–	–	remaining activity at 100 µM ([1]; read-out: residual kinase activity, MNK1): 64%; remaining activity at 100 µM ([2]; read-out: residual kinase activity, MNK2): 86%; remaining activity at 100 µM ([3]; read-out: residual kinase activity, MAPKAP-K2): 106%; remaining activity at 100 µM ([4]; read-out: residual kinase activity, MARK2): 79%; remaining activity at 100 µM ([5]; read-out: residual kinase activity, BRSK2): 77%; remaining activity at 100 µM ([6]; read-out: residual kinase activity, SIK2): 64%; remaining activity at 100 µM ([7]; read-out: residual kinase activity, PIM2): 62%; remaining activity at 100 µM ([8]; read-out: residual kinase activity, HIPK3): 62%; remaining activity at 100 µM ([9]; read-out: residual kinase activity, PAK2): 11%; remaining activity at 100 µM ([10]; read-out: residual kinase activity, PAK5): 111%; remaining activity at 100 µM ([11]; read-out: residual kinase activity, MLK1): 58%; remaining activity at 100 µM ([12]; read-out: residual kinase activity, CSK): 98%; remaining activity at 100 µM ([13]; read-out: residual kinase activity, BRK): 91%; remaining activity at 100 µM ([14]; read-out: residual kinase activity, EPH-B3): 113%
O=C(Nc1nc2ccc(O)cc2s1)c1ccncc1 [Compound 08-42]	53	33	72	67	74	82	90	90	108	79	33	89	43	88	–
O=C(Nc1nc2ccc(O)cc2s1)c1cccnc1 [Compound 08-44]	19	36	56	74	52	68	76	45	85	88	13	83	21	65	–
